Measurements taken from publication PMC9933715 (Antimicrobial Agents and Chemotherapy, 2023).
Like-named read-outs stand apart in the source and are kept apart here.

Experiments:
[1] = test system: DENV-R2A (Rluc-expressing DENV, serotype 2 strain 16681); assay: microbe, parasite or virus in culture; assay type: cell-based, Dengue virus; conditions: for activity at 50 µM: Dengue virus, Huh7.5, 48 h
Huh7.5 cells = assay: Cell viability, CellTiter-Glo luminescent assay; conditions: for Cell viability (fold DMSO) Mean: deconvolution screen, singletons, uninfected Huh7.5
[2] = test system: ZIKV-R2A (strain FSS13025); assay: microbe, parasite or virus in culture; assay type: cell-based; conditions: Zika virus, Huh7.5, 48 h, read-out: ZIKV-R2A replication (fold DMSO) Mean
[3] = read-out: DENV-R2A replication (fold DMSO) Mean, deconvolution screen, singletons, 50 µM, Huh7.5, 2 days postinfection
[4] = read-out: DENV-R2A replication (Fold DMSO), 6A1HI analogues, test concentration = 50 µM, Huh7.5 cells
[5] = read-out: DENV-R2A replication (fold DMSO), Table 1, NPP3C analogues, 50 μM, Huh7.5, 2 days postinfection
[6] = 6A1HI analogues, test concentration = 50 µM, Huh7.5 cells
[7] = Table 1, NPP3C analogues, 50 μM, Huh7.5, 2 days
[8] = Table S3, NPP3C analogues, 50 µM, Huh7.5
[9] = Table S3, NPP3C analogues, 50 µM, Huh7.5, 2 days postinfection
[10] = read-out: DENV-R2A replication (fold DMSO), Table 2, 6A1HI analogues, 50 μM, Huh7.5, 2 days postinfection
[11] = Table 2, 6A1HI analogues, 50 μM, Huh7.5, 2 days

Structure (SMILES) | activity at 50 µM [1, 3] [%] | Cell viability (fold DMSO) Mean (Huh7.5 cells; 50 µM) [fold DMSO] | activity at 50 µM [2] [%] | Cell viability (Fold DMSO) (Huh7.5 cells; [6]) | Cell viability (Fold DMSO) (Huh7.5 cells; [8]) | other results
CNC(=O)c1cc(Br)c[nH]1 [Compound 10Y-0822, CNC(=O)c1cc(Br)c[nH]1] | 75 | 0.89 | 77 | – | – | –
CCN1C(=O)CCCc2ccccc21 [Compound 11N-585S, CCN1C(=O)CCCc2ccccc12] | 102 | 0.93 | 97 | – | – | –
CC1(C)CN2C(=O)c3ccccc3C2S1 (stereo not drawn) [Compound 12R-0242, CC1(C)CN2C(S1)c3ccccc3C2=O] | 62 | 0.81 | 74 | – | – | –
Cc1cc2c(cc1C)NC(C)CC(=O)N2 (stereo not shown) [Compound 12W-0869, CC1CC(=O)Nc2cc(C)c(C)cc2N1] | 85 | 1.09 | 97 | – | – | –
Nc1cccc(NC(=O)c2cccnc2)c1 [Compound 55] | – | – | – | 1.08 | 0.96 | activity at 50 µM [1, 4]: 134%; activity at 50 µM [1, 5]: 75%; Cell viability (Fold DMSO) (Huh7.5 cells; [7]): 0.96 fold DMSO
CC(Nc1ccccc1)c1cccnc1 (stereo not shown) [Compound 56] | – | – | – | 0.98 | 0.94 | activity at 50 µM [1, 4]: 114%; activity at 50 µM [1, 5]: 147%; antiviral activity against DENV-R2A (SAR, in words) ([1]; NPP3C analogues, 50 μM): retains little activity, if any; Cell viability (Fold DMSO) (Huh7.5 cells; [7]): 0.94 fold DMSO
Nc1ccc(C(=O)Nc2ccccc2)cc1 [Compound 61] | – | – | – | 0.83 | 0.98 | DENV-R2A replication (Fold DMSO) [1, 6]: 1.09 Fold DMSO; DENV-R2A replication (Fold DMSO) [1, 9]: 0.98 Fold DMSO
O=C(Nc1ccccc1)c1ccc(C(F)(F)F)nc1 [Compound 62] | – | – | – | 1.03 | 0.79 | DENV-R2A replication (Fold DMSO) [1, 6]: 0.93 Fold DMSO; DENV-R2A replication (Fold DMSO) [1, 9]: 0.71 Fold DMSO
O=C(Nc1ccc(C(F)(F)F)cc1)c1cccnc1 [Compound 65] | – | – | – | 1.17 | 0.87 | activity at 50 µM [1, 4]: 115%; activity at 50 µM [1, 5]: 98%; Cell viability (Fold DMSO) (Huh7.5 cells; [7]): 0.87 fold DMSO
N#CC(Cc1cccnc1)C(=O)Nc1ccccc1 (stereo not shown) [Compound 68] | – | – | – | 1.03 | 0.93 | DENV-R2A replication (Fold DMSO) [1, 6]: 1.02 Fold DMSO; DENV-R2A replication (Fold DMSO) [1, 9]: 1.79 Fold DMSO
O=C(NNC(=O)c1ccncc1)Nc1ccccc1 [Compound 69] | – | – | – | 1.02 | 0.88 | DENV-R2A replication (Fold DMSO) [1, 6]: 0.98 Fold DMSO; DENV-R2A replication (Fold DMSO) [1, 9]: 1.32 Fold DMSO
NC(=O)c1ccc2cn[nH]c2c1 [Compound 75] | – | – | – | 0.99 | – | activity at 50 µM [1, 4]: 106%; activity at 50 µM [1, 10]: 106%; Cell viability (Fold DMSO) (Huh7.5 cells; [11]): 0.99 fold DMSO
CC(=O)c1ccc2[nH]c(=O)[nH]c2c1 [Compound 76] | – | – | – | 0.98 | – | inhibitory activity against DENV-R2A (SAR, in words) ([1]; 6A1HI analogues, 50 μM): loss of inhibitory activity; activity at 50 µM [1, 4]: 87%; activity at 50 µM [1, 10]: 87%; Cell viability (Fold DMSO) (Huh7.5 cells; [11]): 0.98 fold DMSO
Cc1cc(O)cc(C)c1CO [DK-0713, Cc1cc(O)cc(C)c1CO] | 96 | 1.04 | 93 | – | – | –
Cn1cc(Br)c2c(N)ncnc21 [EK-0205, Cn1cc(Br)c2c(N)ncnc12] | 51 | 0.87 | 63 | – | – | –
Cc1ccc(N2CCNC2=O)c(C)c1 [FA-0890, Cc1ccc(N2CCNC2=O)c(C)c1] | 99 | 1.08 | 112 | – | – | –
Cc1cccc(N2CCNCC2)n1 [FS-1568, Cc1cccc(n1)N2CCNCC2] | 91 | 1.22 | 102 | – | – | –
CCCC(=O)c1cccs1 [FS-1782, CCCC(=O)c1cccs1] | 104 | 1.02 | 104 | – | – | –
Nc1oncc1-c1ccc(Cl)cc1 [FS-2048, Nc1oncc1c2ccc(Cl)cc2] | 57 | 0.90 | 61 | – | – | –
O=C(c1ccccc1)C1(O)CCCCC1 [FS-3226, OC1(CCCCC1)C(=O)c2ccccc2] | 96 | 1.07 | 109 | – | – | –
Cc1ccc(C2CNCCN2)cc1 (stereo not shown) [FS-3294, Cc1ccc(cc1)C2CNCCN2] | 74 | 1.08 | 96 | – | – | –
O=C1CCc2ccccc21 [PS-5770, O=C1CCc2ccccc12] | 103 | – | 103 | – | – | –
